Measurements from patent publication US20090220626A1 (priority 2005, published 2009).

Molecular target: T1, human recombinant CYP2A6 (Homo sapiens, UniProt P11509)
T1 construct: purchased
T1 sequence (P11509 1-494): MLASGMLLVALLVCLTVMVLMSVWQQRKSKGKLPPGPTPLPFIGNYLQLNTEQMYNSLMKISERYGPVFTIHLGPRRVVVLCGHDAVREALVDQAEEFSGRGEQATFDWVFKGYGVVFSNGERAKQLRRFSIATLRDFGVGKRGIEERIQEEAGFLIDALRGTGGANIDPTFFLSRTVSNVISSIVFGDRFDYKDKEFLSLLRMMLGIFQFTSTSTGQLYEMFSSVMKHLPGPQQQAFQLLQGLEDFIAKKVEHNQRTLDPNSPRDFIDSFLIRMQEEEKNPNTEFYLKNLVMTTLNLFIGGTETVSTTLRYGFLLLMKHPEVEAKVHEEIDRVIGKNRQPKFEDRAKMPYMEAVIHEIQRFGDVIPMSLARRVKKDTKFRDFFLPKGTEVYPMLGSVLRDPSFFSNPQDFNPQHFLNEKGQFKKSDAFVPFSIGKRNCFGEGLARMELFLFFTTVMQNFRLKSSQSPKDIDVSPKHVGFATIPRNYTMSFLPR
Assay: Inhibition of nicotine metabolism in CYP2A6 Supersomes
Type: biochemical
Settings: 0, 1 and 100 μM; nicotine 100 μM, 15 minutes at 37° C.
Experimental: Samples containing 0, 5, 50, or 500 μM of GSE or Capsule were prepared as described in Example 4. Each sample was incubated with CYP2A6 Supersomes (human recombinant CYP2A6 in an artificial system comprising requisite factors for sample stability and function), with 20 pmol/ml nicotine at 100 μM, for 15 minutes at 37° C.
Sample containing 0, 1 and 100 μM of cytisine, a nicotine agonist, were prepared by extraction in ddH2O pH 4.1, for 2 hours at room temperature with continuous vortexing. The extraction was done at a concentration of 47 mg/ml. The samples were incubated with CYP2A6 Supersomes with 20 pmmol/ml of nicotine at 100 μM for 15 minutes at 37° C.

With O=c1cccc2n1C[C@@H]1CNC[C@H]2C1 [cytisine] the “inhibitory effect in CYP2A6 Supersomes (FIG. 7)” value was “does not have an inhibitory effect”.
